Here are results for two compounds from patent US20190307820A1, “COMPOSITIONS AND METHODS OF USING STAT1/3 INHIBITORS WITH ONCOLYTIC HERPES VIRUS” (priority 2016, published 2019).

One assay deals with T1, pSTAT3 (Homo sapiens, UniProt P40763).
T1 construct: from tissue; host or cells: subcutaneous U87 tumours harvested from mice
Briefly: Western blot of phosphorylated STAT3 in harvested U87 tumour tissues. It counts as in vivo, mice. Conditions: HrR3 with 50 mg/kg or 100 mg/kg NF i.p., day 10. How it is done: FIGS. 19A-C show STAT inhibition by the combination of NF and oHSV-1. FIG. 19A and FIG. 19B, U87 cells (A) or CT26 cells (B) were treated with the indicated concentrations of HrR3 or NF or a combination. Total protein was extracted after 24 hours and subjected to western blot analysis. Band intensity was measured using Image J software and normalized to β-actin. Samples were run in triplicate and data are as means±S.E. Statistically significant differences are indicated by P<0.05 or P<0.01. FIG. 19C, Mice subcutaneously bearing U87 tumors were intratumorally injected with a single dose of HrR3 virus (1×10^6 PFU) and/or peritoneally injected doses of NF as indicated. Tumors were harvested on day 10 post treatment and total protein was extracted from a mouse of each treatment group and subjected to western blot analysis in triplicate. Results are reported as means±S.E.
To further confirm that NF is able to inhibit STAT activation in vivo, subcutaneously implanted U87 tumours were treated with either HrR3 alone or in combination with 50 mg/kg NF or 100 mg/kg NF. Expression levels of phosphorylated STAT1/3 in harvested tumour tissues were measured by western blotting.

The next assay concerns LnCap cells. Nature of the assay: MTT cytotoxicity assay, LnCap cells. The settings on record: Homo sapiens, 72 hours, read-out: Inhibitory concentration 50% (IC50). It is filed as cell-based. How it is done:
FIGS. 1A-1B are graphs that show an anti-tumor effect of nifuroxazide. (FIG. 1A) Cells were treated with indicated concentration of nifuroxazide for 72 hours. Cytotoxicity was measured by using MTT assay. (FIG. 1B) Subcutaneously U87 tumor bearing mice were peritoneally injected with indicated doses of nifuroxazide. Tumor size was measured using calipers at day 7 post nifuroxazide treatment.
In this example, the antitumor effect of nifuroxazide is evaluated in different tumor cells. Cells were treated with nifuroxazide for 72 hours (FIG. 1A). […] To verify the anti-tumor efficacy of nifuroxazide in vivo, animals with subcutaneous U87 tumor implants were injected in the peritoneum with vehicle, 1 mg/kg nifuroxazide and 50 mg/kg nifuroxazide. […] Tumor volume was reduced around 25% and 60% after 7 days treatment with 1 mg/kg nifuroxazide and 50 mg/kg nifuroxazide respectively (FIG. 1B).
Cells were seeded in a 96-well plate at a density of 1×104 (U87). After overnight incubation, cells were treated with only vehicle or indicated MOI of virus or indicated concentration of drugs or reagents. After 2 to 3 days of treatment cell viability was measured by MTT assay (Sigma, Canada) according to the manufacturer's instruction. […] After overnight incubation with lysis buffer, cell viability was measured at 595 nm using a plate reader (Envision 2103 Multilabel reader, Perkin Elmer).
On the technique in general: Tetrazolium dyes change colour on reduction, which living cells bring about.

A further assay deals with ICP27. Briefly: Western blot of ICP27 in HSV-1 infected microglia cells. It counts as cell-based. Conditions: for ICP27 expression: 1 μM C16, 24 hours. How it is done:
FIG. 12B depicts an electrophoresis gel showing total proteins that were harvested from G2O7 infected microglia cells at 24 hours post treatment with either 1 μM of C16, 1 μM of Bay11, or 100 μM of AG. ICP27, ICP4, and […] expression was measured by western blot assay. U87 and MG co-culture were pretreated with 0.5 μM of C16 for 1 hour.
FIG. 12C depicts an electrophoresis gel showing total proteins that were harvested from HrR3 or KOS infected microglia cells at 24 hours post-treatment with 1 μM of PKR-i (C16). ICP27, ICP4, and […] expression was measured by western blot assay. U87 and MG co-culture were pretreated with 0.5 μM of C16 for 1 hour.
Total protein was harvested with sample buffer (125 mM Tris-HCL, 50% Glycerol, […] and 5% 2-mercaptoethanol) and boiled for 5 minutes. Protein samples were subjected to SDS-PAGE (8% gel), transferred to nitrocellulose membranes and blocked in 5% nonfat milk (Bio Rad) in TBS-Tween 20 (TBS-T) for 1 hour at room temperature. The membranes were then incubated with primary antibody against β-actin at 1:1000 (Cell Signaling, Danvers, Mass.) or anti-STAT1 antibody at 1:1000 (Cell Signaling, Danvers, Mass.) or anti-STAT3 antibody at 1:1000 (Cell Signaling, Danvers, Mass.) or anti-phospho STAT1 antibody (Tyr701) at 1:1000 (Cell Signaling, Danvers, Mass.) or anti-phospho STAT3 antibody (Tyr705) at 1:1500 (Cell Signaling, Danvers, Mass.) or anti-phosphor-eIF2a antibody (ser51) at 1:1000 (Cell Signaling, Danvers, Mass.) or anti-ICP27 antibody at 1:1000 (Abcam, Cambridge, Mass.) or anti-ICP4 antibody at 1:750 (Abcam, Cambridge, Mass.) for overnight at 4° C. The membranes were washed the next day with TBS-T three times and incubated with corresponding secondary antibody at 1:3000 (Perkim Elmer, Boston, Mass.), for 1 hour at room temperature. Membranes were washed with TBS-T three times before visualization using ECL reagent (Perkim Elmer, Boston, Mass.) and VersaDoc imaging system (Bio-Rad). Band density was measured by using ImageJ software (NIH, Bethesda, Md.). […]
Background: A western blot detects proteins with antibodies after separation by electrophoresis.

T1 sequence (P40763 whole entry): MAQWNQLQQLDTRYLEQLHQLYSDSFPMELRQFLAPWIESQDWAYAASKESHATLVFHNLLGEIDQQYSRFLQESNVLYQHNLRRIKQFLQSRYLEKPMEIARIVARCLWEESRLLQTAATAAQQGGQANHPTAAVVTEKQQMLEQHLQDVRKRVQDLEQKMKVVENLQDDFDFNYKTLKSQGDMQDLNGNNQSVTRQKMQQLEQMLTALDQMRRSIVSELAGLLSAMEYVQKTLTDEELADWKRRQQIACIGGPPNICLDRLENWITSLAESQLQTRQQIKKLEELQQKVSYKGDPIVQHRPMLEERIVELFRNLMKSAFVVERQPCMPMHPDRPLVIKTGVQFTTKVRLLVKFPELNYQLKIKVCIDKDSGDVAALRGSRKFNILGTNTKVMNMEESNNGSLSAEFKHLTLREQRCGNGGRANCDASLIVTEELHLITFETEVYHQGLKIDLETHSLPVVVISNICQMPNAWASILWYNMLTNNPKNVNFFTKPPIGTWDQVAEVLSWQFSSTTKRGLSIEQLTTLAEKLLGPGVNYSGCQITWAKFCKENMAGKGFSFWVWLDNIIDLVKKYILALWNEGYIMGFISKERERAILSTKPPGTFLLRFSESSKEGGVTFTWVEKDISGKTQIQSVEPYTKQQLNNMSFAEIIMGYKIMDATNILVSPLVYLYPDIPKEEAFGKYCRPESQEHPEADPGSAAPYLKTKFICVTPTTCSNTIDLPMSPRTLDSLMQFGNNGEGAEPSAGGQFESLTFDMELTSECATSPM

For the compound `O=C(N/N=C/c1ccc([N+](=O)[O-])o1)c1ccc(O)cc1` [nifuroxazide, Benzoic acid, 4-hydroxy-, [(5-nitro-2-furanyl)metylene]hydrazide], the “virally induced upregulation of pSTAT3” value at pSTAT3 is given as “inhibited in a dose-dependent fashion”. In addition, the IC50 with LnCap cells was approximately 5 µM.

For the compound `O=C1Nc2ccc3ncsc3c2/C1=C/c1c[nH]cn1` [C16, 6,8-Dihydro-8-(1H-imidazol-5-ylmethylene)-7H-pyrrolo[2,3-g]benzothiazol-7-one], the “upregulated expression of ICP27” value in the assay on ICP27 (G207 infected, 1 μM C16, 1 μM Bay11 or 100 μM AG, 24 hours) turned out to be 25 fold. Besides, the ICP27 expression entry in the assay with ICP27 (HrR3 infected BV2 cells) and in the assay with ICP27 (KOS infected BV2 cells) was “upregulated ICP27 expression” throughout.
